Source: ChEMBL document CHEMBL3259785, “Recent advances in the discovery of small molecules targeting exchange proteins directly activated by cAMP (EPAC)” (J Med Chem, 2014)

What was measured:
[1] = target: T1, Rap guanine nucleotide exchange factor 4 (Homo sapiens, UniProt Q8WZA2); assay: Inhibition of EPAC2 (unknown origin)
[2] = target: T1, Rap guanine nucleotide exchange factor 4; assay: Displacement of 8-NBD-cAMP from EPAC2 (unknown origin) by fluorescence plate reader analysis
[3] = target: T2, Rap guanine nucleotide exchange factor 3 (Homo sapiens, UniProt O95398); assay: Inhibition of EPAC1 (unknown origin) assessed as cAMP-mediated GEF activity
T2 sequence (O95398 whole entry): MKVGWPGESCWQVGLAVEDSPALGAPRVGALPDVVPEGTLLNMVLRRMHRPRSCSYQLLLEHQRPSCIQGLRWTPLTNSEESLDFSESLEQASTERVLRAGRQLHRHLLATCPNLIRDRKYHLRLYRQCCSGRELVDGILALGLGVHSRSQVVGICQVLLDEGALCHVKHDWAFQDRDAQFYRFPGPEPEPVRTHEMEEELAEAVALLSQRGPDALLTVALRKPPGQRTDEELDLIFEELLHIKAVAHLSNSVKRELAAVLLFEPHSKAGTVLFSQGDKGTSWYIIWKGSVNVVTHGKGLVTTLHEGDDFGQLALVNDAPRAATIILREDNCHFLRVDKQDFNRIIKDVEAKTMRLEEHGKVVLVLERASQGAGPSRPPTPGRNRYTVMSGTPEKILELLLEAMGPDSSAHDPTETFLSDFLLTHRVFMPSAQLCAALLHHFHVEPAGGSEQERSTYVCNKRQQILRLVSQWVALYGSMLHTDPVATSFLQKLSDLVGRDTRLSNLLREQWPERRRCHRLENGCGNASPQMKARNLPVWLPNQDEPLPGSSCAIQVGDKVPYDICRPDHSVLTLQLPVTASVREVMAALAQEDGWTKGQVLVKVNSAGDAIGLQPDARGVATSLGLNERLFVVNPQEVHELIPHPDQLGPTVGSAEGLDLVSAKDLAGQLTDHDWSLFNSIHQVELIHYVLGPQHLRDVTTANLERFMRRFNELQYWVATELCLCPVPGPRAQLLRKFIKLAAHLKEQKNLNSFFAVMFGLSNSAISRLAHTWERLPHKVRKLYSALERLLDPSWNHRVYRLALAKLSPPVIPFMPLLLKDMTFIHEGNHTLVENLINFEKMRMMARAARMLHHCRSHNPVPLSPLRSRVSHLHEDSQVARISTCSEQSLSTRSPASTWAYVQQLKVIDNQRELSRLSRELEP

T1 sequence (Q8WZA2 whole entry): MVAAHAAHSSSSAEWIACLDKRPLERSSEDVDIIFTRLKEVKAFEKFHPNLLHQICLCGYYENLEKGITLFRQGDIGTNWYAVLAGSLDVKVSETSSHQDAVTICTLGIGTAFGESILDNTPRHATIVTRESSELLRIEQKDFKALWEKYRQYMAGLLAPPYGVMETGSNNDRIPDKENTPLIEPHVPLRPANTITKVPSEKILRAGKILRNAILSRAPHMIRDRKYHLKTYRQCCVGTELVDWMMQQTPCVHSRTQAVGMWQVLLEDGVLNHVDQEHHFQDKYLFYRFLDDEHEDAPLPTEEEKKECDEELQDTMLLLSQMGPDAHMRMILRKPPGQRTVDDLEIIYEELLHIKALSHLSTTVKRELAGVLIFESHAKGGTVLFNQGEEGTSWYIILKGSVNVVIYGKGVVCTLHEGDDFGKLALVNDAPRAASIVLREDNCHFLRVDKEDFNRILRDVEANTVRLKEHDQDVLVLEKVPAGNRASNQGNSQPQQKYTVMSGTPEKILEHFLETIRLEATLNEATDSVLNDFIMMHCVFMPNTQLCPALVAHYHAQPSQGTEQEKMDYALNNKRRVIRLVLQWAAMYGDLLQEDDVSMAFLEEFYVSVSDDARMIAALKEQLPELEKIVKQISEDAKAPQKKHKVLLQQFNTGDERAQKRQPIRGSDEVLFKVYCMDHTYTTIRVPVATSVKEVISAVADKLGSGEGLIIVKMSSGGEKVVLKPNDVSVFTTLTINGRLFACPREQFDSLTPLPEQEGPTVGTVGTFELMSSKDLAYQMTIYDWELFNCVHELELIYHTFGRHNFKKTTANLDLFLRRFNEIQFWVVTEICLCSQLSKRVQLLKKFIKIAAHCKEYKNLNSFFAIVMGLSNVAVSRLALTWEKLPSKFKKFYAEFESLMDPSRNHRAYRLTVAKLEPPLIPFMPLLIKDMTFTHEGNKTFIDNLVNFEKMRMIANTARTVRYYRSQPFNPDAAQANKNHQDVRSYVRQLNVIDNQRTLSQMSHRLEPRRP

Row | SMILES | IC50 [1] | IC50 [2] | IC50 [3]
1 | COCCC[n+]1c(C)csc1Nc1c(C)cc(C)cc1C | 0.6 µM | – | –
2 | O=C1C=CC2=C(Oc3c(ccc(O)c3O)/C2=C/C=C(O)O)C1=O | – | 3.8 µM | –
3 | N#Cc1c(NC(=O)C(F)(F)F)sc2c3c(=O)c4ccccc4c(=O)c=3oc3ccccc3c12 | – | 7.9 µM | –
4 | O=S(=O)(O)c1ccc2c(/N=N/c3c(O)ccc4ccccc34)cccc2c1 | – | 1.7 µM | –
5 | CC(C)(C)c1cc(C(=O)/C(C#N)=N/Nc2cccc(Cl)c2)no1 | – | 7 µM | 3.2 µM
